What follows are compounds tested on Alopecurus myosuroides (ALOMY) (assay: Herbicidal glasshouse test, post-emergence). Conditions: post-emergence (sprayed after 8 days cultivation), 1000 g/h, evaluated after 13 days.
Type: in vivo
Description: (§1) Seeds of a variety of test species are sown in standard soil in pots (Alopecurus myosuroides (ALOMY), Setaria faberi (SETFA), Echinochloa crus-galli (ECHCG), Solanum nigrum (SOLNI), Amaranthus retoflexus (AMARE), Ipomoea hederacea (IPOHE)). After cultivation for one day (pre-emergence) or after 8 days cultivation (post-emergence) under controlled conditions in a glasshouse (at 24/16° C., day/night; 14 hours light; 65% humidity), the plants are sprayed with an aqueous spray solution derived from the formulation of the technical active ingredient in acetone/water (50:50) solution containing 0.5% Tween 20 (polyoxyethelyene sorbitan monolaurate, CAS RN 9005-64-5). Compounds are applied at 1000 g/h. The test plants are then grown in a glasshouse under controlled conditions in a glasshouse (at 24/16° C., day/night; 14 hours light; 65% humidity) and watered twice daily. After 13 days for pre and post-emergence, the test is evaluated for the percentage damage caused to the plant. The biological activities are shown in the following table on a five point scale (5=80-100%; 4=60-79%; 3=40-59%; 2=20-39%; 1=0-19%).

SMILES | percentage damage caused to the plant, five point scale, POST Application ALOMY
CCOc1ccc(-n2nc(C)cc(C(=O)Nc3nnnn3C)c2=O)cc1 [Compound 1.010] | 5 (5=80-100%)
CCc1ccc(-n2nc(C)cc(C(=O)Nc3nnnn3C)c2=O)cc1 [Compound 1.011] | 5 (5=80-100%)
Cc1cc(C(=O)Nc2nnnn2C)c(=O)n(-c2ccc(Cl)cc2)n1 [Compound 1.012] | 5 (5=80-100%)
Cc1cc(C(=O)Nc2nnnn2C)c(=O)n(-c2ccc(F)c(F)c2)n1 [Compound 1.013] | 5 (5=80-100%)

The compounds below were run on Amaranthus retoflexus (AMARE) (assay: Herbicidal glasshouse test, post-emergence). Conditions: post-emergence (sprayed after 8 days cultivation), 1000 g/h, evaluated after 13 days.
Type: in vivo
Description: as §1

SMILES | percentage damage caused to the plant, five point scale, POST Application AMARE
CCOc1ccc(-n2nc(C)cc(C(=O)Nc3nnnn3C)c2=O)cc1 [Compound 1.010] | 5 (5=80-100%)
CCc1ccc(-n2nc(C)cc(C(=O)Nc3nnnn3C)c2=O)cc1 [Compound 1.011] | 5 (5=80-100%)
Cc1cc(C(=O)Nc2nnnn2C)c(=O)n(-c2ccc(Cl)cc2)n1 [Compound 1.012] | 5 (5=80-100%)
Cc1cc(C(=O)Nc2nnnn2C)c(=O)n(-c2ccc(F)c(F)c2)n1 [Compound 1.013] | 5 (5=80-100%)

These compounds were tested on Echinochloa crus-galli (ECHCG) (assay: Herbicidal glasshouse test, post-emergence). Conditions: post-emergence (sprayed after 8 days cultivation), 1000 g/h, evaluated after 13 days.
Type: in vivo
Description: as §1

SMILES | percentage damage caused to the plant, five point scale, POST Application ECHCG
CCOc1ccc(-n2nc(C)cc(C(=O)Nc3nnnn3C)c2=O)cc1 [Compound 1.010] | 5 (5=80-100%)
CCc1ccc(-n2nc(C)cc(C(=O)Nc3nnnn3C)c2=O)cc1 [Compound 1.011] | 5 (5=80-100%)
Cc1cc(C(=O)Nc2nnnn2C)c(=O)n(-c2ccc(Cl)cc2)n1 [Compound 1.012] | 5 (5=80-100%)
Cc1cc(C(=O)Nc2nnnn2C)c(=O)n(-c2ccc(F)c(F)c2)n1 [Compound 1.013] | 5 (5=80-100%)

Each compound was assayed on Ipomoea hederacea (IPOHE) (assay: Herbicidal glasshouse test, post-emergence). Conditions: post-emergence (sprayed after 8 days cultivation), 1000 g/h, evaluated after 13 days.
Type: in vivo
Description: as §1

SMILES | percentage damage caused to the plant, five point scale, POST Application IPOHE
CCOc1ccc(-n2nc(C)cc(C(=O)Nc3nnnn3C)c2=O)cc1 [Compound 1.010] | 5 (5=80-100%)
CCc1ccc(-n2nc(C)cc(C(=O)Nc3nnnn3C)c2=O)cc1 [Compound 1.011] | 5 (5=80-100%)
Cc1cc(C(=O)Nc2nnnn2C)c(=O)n(-c2ccc(Cl)cc2)n1 [Compound 1.012] | 5 (5=80-100%)
Cc1cc(C(=O)Nc2nnnn2C)c(=O)n(-c2ccc(F)c(F)c2)n1 [Compound 1.013] | 5 (5=80-100%)

These compounds were tested on Setaria faberi (SETFA) (assay: Herbicidal glasshouse test, post-emergence). Conditions: post-emergence (sprayed after 8 days cultivation), 1000 g/h, evaluated after 13 days.
Type: in vivo
Description: as §1

SMILES | percentage damage caused to the plant, five point scale, POST Application SETFA
CCOc1ccc(-n2nc(C)cc(C(=O)Nc3nnnn3C)c2=O)cc1 [Compound 1.010] | 5 (5=80-100%)
CCc1ccc(-n2nc(C)cc(C(=O)Nc3nnnn3C)c2=O)cc1 [Compound 1.011] | 5 (5=80-100%)
Cc1cc(C(=O)Nc2nnnn2C)c(=O)n(-c2ccc(Cl)cc2)n1 [Compound 1.012] | 5 (5=80-100%)
Cc1cc(C(=O)Nc2nnnn2C)c(=O)n(-c2ccc(F)c(F)c2)n1 [Compound 1.013] | 5 (5=80-100%)

Each compound was assayed on Solanum nigrum (SOLNI) (assay: Herbicidal glasshouse test, post-emergence). Conditions: post-emergence (sprayed after 8 days cultivation), 1000 g/h, evaluated after 13 days.
Type: in vivo
Description: as §1

SMILES | percentage damage caused to the plant, five point scale, POST Application SOLNI
CCOc1ccc(-n2nc(C)cc(C(=O)Nc3nnnn3C)c2=O)cc1 [Compound 1.010] | 5 (5=80-100%)
CCc1ccc(-n2nc(C)cc(C(=O)Nc3nnnn3C)c2=O)cc1 [Compound 1.011] | 5 (5=80-100%)
Cc1cc(C(=O)Nc2nnnn2C)c(=O)n(-c2ccc(Cl)cc2)n1 [Compound 1.012] | 5 (5=80-100%)
Cc1cc(C(=O)Nc2nnnn2C)c(=O)n(-c2ccc(F)c(F)c2)n1 [Compound 1.013] | 5 (5=80-100%)

Each compound was assayed on Alopecurus myosuroides (ALOMY) (assay: Herbicidal glasshouse test, pre-emergence). Conditions: pre-emergence (sprayed after cultivation for one day), 1000 g/h, evaluated after 13 days.
Type: in vivo
Description: as §1

SMILES | percentage damage caused to the plant, five point scale, PRE Application ALOMY
CCOc1ccc(-n2nc(C)cc(C(=O)Nc3nnnn3C)c2=O)cc1 [Compound 1.010] | 5 (5=80-100%)
CCc1ccc(-n2nc(C)cc(C(=O)Nc3nnnn3C)c2=O)cc1 [Compound 1.011] | 5 (5=80-100%)
Cc1cc(C(=O)Nc2nnnn2C)c(=O)n(-c2ccc(Cl)cc2)n1 [Compound 1.012] | 5 (5=80-100%)
Cc1cc(C(=O)Nc2nnnn2C)c(=O)n(-c2ccc(F)c(F)c2)n1 [Compound 1.013] | 5 (5=80-100%)

These compounds were tested on Amaranthus retoflexus (AMARE) (assay: Herbicidal glasshouse test, pre-emergence). Conditions: pre-emergence (sprayed after cultivation for one day), 1000 g/h, evaluated after 13 days.
Type: in vivo
Description: as §1

SMILES | percentage damage caused to the plant, five point scale, PRE Application AMARE
CCOc1ccc(-n2nc(C)cc(C(=O)Nc3nnnn3C)c2=O)cc1 [Compound 1.010] | 5 (5=80-100%)
CCc1ccc(-n2nc(C)cc(C(=O)Nc3nnnn3C)c2=O)cc1 [Compound 1.011] | 5 (5=80-100%)
Cc1cc(C(=O)Nc2nnnn2C)c(=O)n(-c2ccc(Cl)cc2)n1 [Compound 1.012] | 5 (5=80-100%)
Cc1cc(C(=O)Nc2nnnn2C)c(=O)n(-c2ccc(F)c(F)c2)n1 [Compound 1.013] | 5 (5=80-100%)

What follows are compounds tested on Echinochloa crus-galli (ECHCG) (assay: Herbicidal glasshouse test, pre-emergence). Conditions: pre-emergence (sprayed after cultivation for one day), 1000 g/h, evaluated after 13 days.
Type: in vivo
Description: as §1

SMILES | percentage damage caused to the plant, five point scale, PRE Application ECHCG
CCOc1ccc(-n2nc(C)cc(C(=O)Nc3nnnn3C)c2=O)cc1 [Compound 1.010] | 5 (5=80-100%)
CCc1ccc(-n2nc(C)cc(C(=O)Nc3nnnn3C)c2=O)cc1 [Compound 1.011] | 5 (5=80-100%)
Cc1cc(C(=O)Nc2nnnn2C)c(=O)n(-c2ccc(Cl)cc2)n1 [Compound 1.012] | 5 (5=80-100%)
Cc1cc(C(=O)Nc2nnnn2C)c(=O)n(-c2ccc(F)c(F)c2)n1 [Compound 1.013] | 5 (5=80-100%)

What follows are compounds tested on Ipomoea hederacea (IPOHE) (assay: Herbicidal glasshouse test, pre-emergence). Conditions: pre-emergence (sprayed after cultivation for one day), 1000 g/h, evaluated after 13 days.
Type: in vivo
Description: as §1

SMILES | percentage damage caused to the plant, five point scale, PRE Application IPOHE
CCOc1ccc(-n2nc(C)cc(C(=O)Nc3nnnn3C)c2=O)cc1 [Compound 1.010] | 4 (4=60-79%)
CCc1ccc(-n2nc(C)cc(C(=O)Nc3nnnn3C)c2=O)cc1 [Compound 1.011] | 4 (4=60-79%)
Cc1cc(C(=O)Nc2nnnn2C)c(=O)n(-c2ccc(Cl)cc2)n1 [Compound 1.012] | 3 (3=40-59%)
Cc1cc(C(=O)Nc2nnnn2C)c(=O)n(-c2ccc(F)c(F)c2)n1 [Compound 1.013] | 4 (4=60-79%)

Each compound was assayed on Setaria faberi (SETFA) (assay: Herbicidal glasshouse test, pre-emergence). Conditions: pre-emergence (sprayed after cultivation for one day), 1000 g/h, evaluated after 13 days.
Type: in vivo
Description: as §1

SMILES | percentage damage caused to the plant, five point scale, PRE Application SETFA
CCOc1ccc(-n2nc(C)cc(C(=O)Nc3nnnn3C)c2=O)cc1 [Compound 1.010] | 5 (5=80-100%)
CCc1ccc(-n2nc(C)cc(C(=O)Nc3nnnn3C)c2=O)cc1 [Compound 1.011] | 5 (5=80-100%)
Cc1cc(C(=O)Nc2nnnn2C)c(=O)n(-c2ccc(Cl)cc2)n1 [Compound 1.012] | 5 (5=80-100%)
Cc1cc(C(=O)Nc2nnnn2C)c(=O)n(-c2ccc(F)c(F)c2)n1 [Compound 1.013] | 5 (5=80-100%)

The compounds below were run on Solanum nigrum (SOLNI) (assay: Herbicidal glasshouse test, pre-emergence). Conditions: pre-emergence (sprayed after cultivation for one day), 1000 g/h, evaluated after 13 days.
Type: in vivo
Description: as §1

SMILES | percentage damage caused to the plant, five point scale, PRE Application SOLNI
CCOc1ccc(-n2nc(C)cc(C(=O)Nc3nnnn3C)c2=O)cc1 [Compound 1.010] | 5 (5=80-100%)
CCc1ccc(-n2nc(C)cc(C(=O)Nc3nnnn3C)c2=O)cc1 [Compound 1.011] | 5 (5=80-100%)
Cc1cc(C(=O)Nc2nnnn2C)c(=O)n(-c2ccc(Cl)cc2)n1 [Compound 1.012] | 5 (5=80-100%)
Cc1cc(C(=O)Nc2nnnn2C)c(=O)n(-c2ccc(F)c(F)c2)n1 [Compound 1.013] | 5 (5=80-100%)

From patent publication US9402398B2, “Herbicidal compounds” (SYNGENTA PARTICIPATIONS AG, priority 2012, dated 2016)
